Values of other authors, collected in patent US11547692B2, “Complete animal food having cannabinoids in trace concentrations to avoid toxicity” (High Plains Nutrition, LLC, priority 2017, dated 2023).

System: psychotropic effects
Conditions: humans; single administration; lowest dose tested; European Food Safety Authority (EFSA, 2011)

SMILES: CCCCCc1cc(O)c2c(c1)OC(C)(C)[C@@H]1CCC(C)=C[C@@H]21 [THC, Tetrahydrocannabinol]
- Lowest Observed Effect Level (LOEL), lowest effective dose for psychotropic effects: 0.04 mg THC/kg BW
